In brackets after ≈: the same amount, converted by molar mass. Like-named read-outs stand apart in the source and are kept apart here.
Assays:
[1] = tested on: mouse tumor cell line L1210; experiment: Anticancer activity on L1210 in BDF1 mice, increased life span (Example 6, Table 2); type: in vivo; conditions: for Increased life span (%) / Average survival date: 15 times; for Average survival date: control 17.8
Description: The mice used were 5-week-old BDF1 male mice (19 to 20 g) that were purchased from Charles River Japan, and adapted for 1 week. The breeding condition of the mice was set to a temperature of 24±2° C. and a humidity of 50±1° C. Purified water for drinking was supplied to the mice twice a week, and straws and cages were changed once a week. The experiment was performed using two mice per group. As the tumor cell line, an L1210 mouse blood tumor cell line was used, and the cell line was sub-cultured in a Falcon culture flask twice or three times, washed with a phosphorous buffer solution (pH 7.2), and quantified under a microscope to produce a cell suspension of 1×10^7/ml, and 100 (1×10^6) ml of the cell suspension was abdominally administered to the mouse using 1 ml of a disposable sterilized injector. The drug was orally administered 24 hours after the cellular transplantation. […] The samples were administered to the mice five times a week for 3 weeks, for a total of 15 times, starting 24 hours after the tumor cell administration. The anticancer activity was determined as increased life span to control.

[2] = tested on: mouse tumor cell line L1210; experiment: Anticancer activity on L1210 in BDF1 mice, increased life span (Example 34, Table 4); type: in vivo; conditions: for Average life maintenance day: control 8.8
Description: Capecitabine (5′-deoxy-N^4-(pentyloxycarbonyl)-5-fluorocytosine (in Formula 1, R^a=pentyl, R^b=hydrogen) which has good anticancer activity among. 5′-deoxy-N-alkyloxycarbonyl-5-fluorocytosine derivatives disclosed in European Patent No. 602454 was used for a control, 5′-deoxy-N^4-propazyloxycarbonyl-5-fluorocytosine-5′-carboxylic acid (Formula 2a) obtained from Example 3 was used for a sample, and anticancer activity to the mouse tumor cell line L1210 was measured.
The mice used were 5-week-old BDF1 male mice (19 to 20 g) that were purchased from Charles River Japan, and adapted for 1 week. The breeding condition of the mouse was set to a temperature of 24±2° C. and a humidity of […] Purified water for drinking was supplied to the mice twice a week, and straws and cages were changed once a week. The experiment was performed using two mice per group. As the tumor cell line, an L1210 mouse blood tumor cell line was used, the cell line was sub-cultured in a Falcon culture flask twice or three times, washed with a phosphorous buffer solution (pH 7.2), quantified under a microscope to produce a cell suspension of 1×10^7/ml, and 100 (1×10^6) […] of the cell suspension was abdominally administered to the mouse using 1 ml of a disposable sterilized injector. The drug was orally administered 24 hours after the cellular transplantation. The concentration of the administered capecitabine was 1.2, 5.7, 28.8, 144, and 720 mg/kg/100 μl for respective mice, and that of the compound of 2a of the present invention was 1.2, 5.8, 28.8 mg/kg/100 μl for respective mice. The capecitabine was dissolved in dimethylsulfoxide and suspended in 0.5% carboxymethyl cellulose, and the compound of 2a was dissolved in distilled water. The samples were administered to the mice five times a week for 3 weeks, for a total of 15 times, starting 24 hours after the tumor cell administration. The anticancer activity was determined as increased life span to control.

[3] = tested on: mouse tumor cell line L1210; experiment: Anticancer activity on L1210 in BDF1 mice, increased life span (Example 35, Table 5); type: in vivo; conditions: 15 times; for Average life day: control 17.8
Description: The mice used were 5-week-old BDF1 male mice (19 to 20 g) that were purchased from Charles River Japan, and adapted for 1 week. The breeding condition of the mice was set to a temperature of 24±2° C. and a humidity of […] Purified water for drinking water was supplied to the mice twice a week, and straws and cages were changed once a week. The experiment was performed using two mice per group. […] The drug was orally administered 24 hours after the cellular transplantation. […] The capecitabine was dissolved in dimethylsulfoxide and suspended in 0.5% carboxymethyl cellulose, and the compound of 2a was dissolved in distilled water. […] The anticancer activity was determined as increased life span.

A549 (lung cancer) = experiment: MTT cell toxicity to human cancer cells, A549; type: cell-based; conditions: for IC50 Cancer cell line A549: 72 hours, Table 3
Description: (§1) For measuring in vitro anticancer activity of 5′-deoxy-N^4-propargyloxycarbonyl-5-fluorocytosine-5′-carboxylic acid (R^3=propargyl, compound of 2a) using 5-Fu as a reference compound, cell toxicity to human cancer cell was evaluated. The cancer cells used were A549 (lung cancer), HCT15 (colon cancer), SK-OV-3 (ovarian cancer), and SK-MEL-2 (melanoma cancer).
(§2) The cancer cells were incubated in an incubator with a constant humidity at 37° C. and 5% CO2, and an RPMI medium with the addition of 10% fetal bovine serum was used for a basic medium. In order to identify cell toxicity, the cancer cells in a logarithmic phase were inoculated at 2-5×10^4 cells per well of a 96-well plate, and incubated for 24 hours. A sample solution of 5-FU and 5′-deoxy-N^4-propargyloxycarbonyl-5-flurocytosine-5′-carboxylic acid was stepwisely added to the well and incubated for 72 hours. 20 μl of 5 mg/ml MTT reacting solution dissolved in a physiological saline solution was added to the well of the incubated plate and incubated for 4 hours. The produced formazan crystal was dissolved in dimethylsulfoxide and absorbance of each well was measured at 540 nm to calculate a number of living cells. The absorbance of the well with the medium and without cell was set to 0%, that of the well without the sample was set to 100%, and the concentration corresponding to 50% was called an IC50 (μg/ml) value.
(§3) In order to measure anticancer activity of 5′-deoxy-N-alkyloxycarbonyl-5-fluorocytosine-5′-carboxylic acid (compound of Formula 2a) of the present invention using 5-FU as a control, the cell toxicity to human cancer cells was measured. The human cancer cells used were A549 (lung cancer), HCT15 (colon cancer), SK-OV-3 (ovarian cancer), and SK-MEL-2 (melanoma cancer).
(§4) The cancer cells were cultured in an incubator with a constant humidity at 37° C. and 5% CO2, and an RPMI medium with 10% fetal bovine serum was used for a medium. In order to measure cell toxicity, the cancer cells in a logarithmic phase were inoculated into 2 to 5×10^4 cells per well of a 96-well plate, incubated for 24 hours, and a sample solution of a stepwise dilution of 5-FU and 5′-deoxy-N^4-pentyloxycarbonyl-5-fluorocytocine-5′-carboxylic acid were added thereto followed by incubating for 72 hours. 20 μl of 5 mg/ml of MTT reacting solution dissolved in a physiological saline solution was added to each well of the incubated plate, incubated for 4 hours, the produced formazan crystal was dissolved in dimethylsulfoxide, and the absorbance of each well was measured at a wavelength of 540 nm to calculate the number of living cells.

SK-OV-3 (ovarian cancer) = experiment: MTT cell toxicity to human cancer cells, SK-OV-3; type: cell-based; conditions: for IC50 Cancer cell line SK-OV-3: 72 hours, Table 3; for IC50: Homo sapiens, SK-OV-3, 72 hours
Description: as §1, §2, §3, §4

HCT15 (colon cancer) = experiment: MTT cell toxicity to human cancer cells, HCT15; type: cell-based; conditions: for IC50 Cancer cell line HCT15: 72 hours, Table 3; for IC50: Homo sapiens, HCT-15, 72 hours
Description: as §1, §2, §3, §4

[4] = tested on: SK-MEL-2 (melanoma cancer); experiment: MTT cell toxicity to human cancer cells, SK-MEL-2; type: cell-based; conditions: for IC50 Cancer cell line SK-MEL2: 72 hours, Table 3
Description: as §1, §2, §3, §4

Compound	Increased life span (%) ([1]; 5.8 mg/kg/day oral)	Average survival date ([1]; 5.8 mg/kg/day oral) [days]	Increased life span (%) ([1]; 28.8 mg/kg/day oral)	Average survival date ([1]; 28.8 mg/kg/day oral) [days]	Increased life span (%) ([2]; 0.13 mmol/kg/day oral)	Average life maintenance day ([2]; 0.13 mmol/kg/day oral) [days]	Increased life span (%) ([2]; 0.67 mmol/kg/day oral)	Average life maintenance day ([2]; 0.67 mmol/kg/day oral) [days]	Increased life span (%) ([2]; 1.5 mmol/kg/day oral)	Average life maintenance day ([2]; 1.5 mmol/kg/day oral) [days]	Life maintenance rate (%) ([3]; 1.2 mg/kg/day oral)	Average life day ([3]; 1.2 mg/kg/day oral) [days]	Life maintenance rate (%) ([3]; 5.8 mg/kg/day oral)	Average life day ([3]; 5.8 mg/kg/day oral) [days]	Life maintenance rate (%) ([3]; 28.8 mg/kg/day oral)	Average life day ([3]; 28.8 mg/kg/day oral) [days]	IC50 Cancer cell line A549 (A549 (lung cancer)) [µg/mL]	IC50 Cancer cell line SK-OV-3 (SK-OV-3 (ovarian cancer)) [µg/mL]	IC50 Cancer cell line HCT15 (HCT15 (colon cancer)) [µg/mL]	IC50 Cancer cell line SK-MEL2 [4] [µg/mL]	further results
CCCCCOC(=O)Nc1nc(=O)n([C@@H]2O[C@H](C)[C@@H](O)[C@H]2O)cc1F [Capecitabine, 5′-deoxy-N^4-(pentyloxycarbonyl)-5-fluorocytosine]	8	19.2	14	20.2	6.8	9.4	9.1	9.6	42.0	12.5	6	18.9	8	19.2	14	20.2	–	–	–	–	Increased life span (%) ([1]; 144 mg/kg/day oral): 15%; Average survival date ([1]; 144 mg/kg/day oral): 20.1 days; Increased life span (%) ([1]; 720 mg/kg/day oral): 30%; Average survival date ([1]; 720 mg/kg/day oral): 22.8 days; Life maintenance rate (%) ([3]; 144 mg/kg/day oral): 15%; Average life day ([3]; 144 mg/kg/day oral): 20.1 days; Life maintenance rate (%) ([3]; 720 mg/kg/day oral): 30%; Average life day ([3]; 720 mg/kg/day oral): 22.8 days
C#CCOC(=O)Nc1nc(=O)n([C@@H]2O[C@H](C(=O)O)[C@@H](O)[C@H]2O)cc1F [Example 3, 5′-deoxy-N^4-(propargyloxycarbonyl)-5-fluorocytosine-5′-carboxylic acid]	11	20.6	23	21.9	–	–	–	–	–	–	8	20.1	11	20.6	23	21.9	0.005 (≈ 0.014 µM)	0.005 (≈ 0.014 µM)	0.040 (≈ 0.112 µM)	0.007 (≈ 0.0196 µM)	Increased life span (%) ([1]; 1.2 mg/kg/day oral): 8%; Average survival date ([1]; 1.2 mg/kg/day oral): 20.1 days; anticancer activity in vivo ([1]; summary of Table 2, animal experiment): good anticancer activity in vivo
O=c1[nH]cc(F)c(=O)[nH]1 [Example 5-FU, 5-fluorouracil, reference compound]	–	–	–	–	–	–	–	–	–	–	–	–	–	–	–	–	–	–	–	–	IC50 (A549 (lung cancer); Homo sapiens, A549, 72 hours, Table 3, read-out: IC50 Cancer cell line A549): 0.26 µg/mL (≈ 2 µM); IC50 (SK-OV-3 (ovarian cancer); Table 1, read-out: IC50 Concentration (μg/ml) SK-OV-3): 0.03 µg/mL (≈ 0.231 µM); IC50 (SK-OV-3 (ovarian cancer); Table 3, read-out: IC50 Cancer cell line SK-OV-3): 0.03 µg/mL (≈ 0.231 µM); IC50 (HCT15 (colon cancer); Table 1, read-out: IC50 Concentration (μg/ml) HCT15): 0.11 µg/mL (≈ 0.846 µM); IC50 (HCT15 (colon cancer); Table 3, read-out: IC50 Cancer cell line HCT15): 0.11 µg/mL (≈ 0.846 µM); IC50 ([4]; Homo sapiens, SK-MEL-2, 72 hours, Table 3, read-out: IC50 Cancer cell line SK-MEL2): 0.63 µg/mL (≈ 4.84 µM); Increased life span (%) ([2]; 0.15 mmol/kg/day): 62.5%; Average life maintenance day ([2]; 0.15 mmol/kg/day): 14.3 days; Increased life span (%) ([2]; 0.23 mmol/kg/day): 87.5%; Average life maintenance day ([2]; 0.23 mmol/kg/day): 16.5 days
CCOC(=O)Nc1nc(=O)n([C@@H]2O[C@H](C(=O)O)[C@@H](O)[C@H]2O)cc1F [Example 25, 5′-deoxy-N^4-(ethyloxycarbonyl)-5-fluorocytosine-5′-carboxylic acid]	–	–	–	–	–	–	–	–	–	–	–	–	–	–	–	–	0.49 (≈ 1.41 µM)	0.16 (≈ 0.461 µM)	0.47 (≈ 1.35 µM)	0.16 (≈ 0.461 µM)	–
CCCCCOC(=O)Nc1nc(=O)n([C@@H]2O[C@H](C(=O)O)[C@@H](O)[C@H]2O)cc1F [Example 28, 5′-deoxy-N^4-(pentyloxycarbonyl)-5-fluorocytosine-5′-carboxylic acid]	–	–	–	–	3.4	9.1	28.4	11.3	91.9	16.8	–	–	–	–	–	–	0.17 (≈ 0.437 µM)	0.03 (≈ 0.0771 µM)	0.12 (≈ 0.308 µM)	0.03 (≈ 0.0771 µM)	–
C=CCOC(=O)Nc1nc(=O)n([C@@H]2O[C@H](C(=O)O)[C@@H](O)[C@H]2O)cc1F [Example 30, 5′-deoxy-N^4-(allyloxycarbonyl)-5-fluorocytosine-5′-carboxylic acid]	–	–	–	–	–	–	–	–	–	–	25	22.1	39	24.8	44	25.7	0.04 (≈ 0.111 µM)	0.008 (≈ 0.0223 µM)	0.032 (≈ 0.0891 µM)	0.008 (≈ 0.0223 µM)	–

— US20030166606A1, “5'-deoxy-n-(substituted oxycarbonyl)-5-fluorocytosine and derivatives thereof, method of preparing same, and anticancer composition comprising same as active ingredients” (priority 2003, published 2003)
